The values below come from PubChem BioAssay AID256 (DTP/NCI, 2004).

The subject of this experiment is CD2F1 mice, L1210 leukemia ip, survival T/C. Description: NCI In Vivo Anticancer Drug Screen. Data for tumor model L1210 Leukemia (intraperitoneal) in CD2F1 (CDF1) mice. The conditions noted are these: higher = longer survival. The method in brief:
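Tumor-bearing mice (transplanted tumor) were split into treated and vehicle control groups, and the measured endpoint of each treated group was divided by that of its vehicle controls.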

[1] abbreviates: endpoint: mean survival time, dose: 200.0 mg/kg/injection, schedule: Q04DX003 (ip), vehicle: Klucel (hydroxypropylcellulose) (HPC).
[2] abbreviates: endpoint: mean survival time, dose: 100.0 mg/kg/injection, schedule: Q01DX009 (ip), vehicle: saline with Tween-80.
Where [3] appears, read: endpoint: mean survival time, dose: 200.0 mg/kg/injection, schedule: Q01DX009 (ip), vehicle: saline with Tween-80.

Molecules are shown by their SMILES. Where “and” joins values, the source holds several entries; their conditions need not be identical. Equal values may be shown once. Inconclusive results and toxic doses are left out.

Regarding `CN(C)N=Nc1ccc(C(F)(F)F)cc1`, the T/C runs as follows: (endpoint: mean survival time, dose: 118.0 mg/kg/injection, schedule: Q01DX009 (ip), vehicle: Klucel (hydroxypropylcellulose) (HPC)) 101 % of control; (endpoint: mean survival time, dose: 177.0 mg/kg/injection, schedule: Q01DX009 (ip), vehicle: Klucel (hydroxypropylcellulose) (HPC)) 102 % of control.
As to `c1cc2c(cc1CC1CCNC1)OCO2` (stereo not given), the T/C is 103 % of control (endpoint: mean survival time, dose: 5.0 mg/kg/injection, schedule: Q01DX001 (ip), vehicle: saline); 100 % of control (endpoint: mean survival time, dose: 5.0 mg/kg/injection, schedule: Q01DX009 (ip), vehicle: saline sonified); 101 % of control (endpoint: mean survival time, dose: 5.0 mg/kg/injection, schedule: Q04DX003 (ip), vehicle: saline); 103 % of control (endpoint: mean survival time, dose: 10.0 mg/kg/injection, schedule: Q01DX001 (ip), vehicle: saline); 91 % of control (endpoint: mean survival time, dose: 10.0 mg/kg/injection, schedule: Q01DX009 (ip), vehicle: saline sonified); 102 % of control (endpoint: mean survival time, dose: 10.0 mg/kg/injection, schedule: Q04DX003 (ip), vehicle: saline). For the same compound, the T/C is 98 % of control (endpoint: mean survival time, dose: 20.0 mg/kg/injection, schedule: Q01DX001 (ip), vehicle: saline); 100 % of control (endpoint: mean survival time, dose: 20.0 mg/kg/injection, schedule: Q01DX009 (ip), vehicle: saline sonified); 101 % of control (endpoint: mean survival time, dose: 20.0 mg/kg/injection, schedule: Q04DX003 (ip), vehicle: saline).
As for `O=[N+]([O-])c1cccn2nc(C3OC(CO)C(O)C3O)nc12` (stereo not given), the T/C is, setting by setting: (endpoint: mean survival time, dose: 12.5 mg/kg/injection, schedule: Q01DX005 (ip), vehicle: water) 96 % of control; (endpoint: mean survival time, dose: 25.0 mg/kg/injection, schedule: Q01DX005 (ip), vehicle: water) 97 % of control; (endpoint: mean survival time, dose: 50.0 mg/kg/injection, schedule: Q01DX005 (ip), vehicle: water) 94 % of control; (endpoint: mean survival time, dose: 100.0 mg/kg/injection, schedule: Q01DX005 (ip), vehicle: water) 100 % of control.
For `O=c1[nH]c(=O)n(C2OC(CO)C3OP(=O)(C45CC6CC(CC(C6)C4)C5)OC32)cc1Br` (stereo not given), the T/C (endpoint: mean survival time, dose: 12.5 mg/kg/injection, schedule: Q01DX005 (ip), vehicle: other) was 93 % of control; the T/C (endpoint: mean survival time, dose: 25.0 mg/kg/injection, schedule: Q01DX005 (ip), vehicle: other) was 97 % of control; the T/C (endpoint: mean survival time, dose: 50.0 mg/kg/injection, schedule: Q01DX005 (ip), vehicle: other) is 93 % of control; the T/C (endpoint: mean survival time, dose: 100.0 mg/kg/injection, schedule: Q01DX005 (ip), vehicle: other) was 93 % of control; the T/C (endpoint: mean survival time, dose: 200.0 mg/kg/injection, schedule: Q01DX005 (ip), vehicle: other) was 93 % of control.
In the case of `O=[N+]([O-])c1cccnc1SSc1ncccc1[N+](=O)[O-]`, the T/C (endpoint: mean survival time, dose: 100.0 mg/kg/injection, schedule: Q01DX001 (ip), vehicle: saline) is 90 % of control; the T/C (endpoint: mean survival time, dose: 100.0 mg/kg/injection, schedule: Q04DX003 (ip), vehicle: saline) is 92 % of control; the T/C (endpoint: mean survival time, dose: 200.0 mg/kg/injection, schedule: Q01DX001 (ip), vehicle: saline) is 90 % of control; the T/C (endpoint: mean survival time, dose: 200.0 mg/kg/injection, schedule: Q04DX003 (ip), vehicle: saline) is 102 % of control; the T/C (endpoint: mean survival time, dose: 400.0 mg/kg/injection, schedule: Q01DX001 (ip), vehicle: saline) was 90 % of control; the T/C (endpoint: mean survival time, dose: 400.0 mg/kg/injection, schedule: Q04DX003 (ip), vehicle: saline) is 92 % of control.
Turning to `NC(=O)c1[nH]cnc1/N=N/N(CCCl)Cc1ccccc1`, the T/C (endpoint: mean survival time, dose: 66.0 mg/kg/injection, schedule: Q01DX009 (ip), vehicle: Klucel (hydroxypropylcellulose) (HPC)) was 180 % of control; the T/C (endpoint: mean survival time, dose: 100.0 mg/kg/injection, schedule: Q01DX009 (ip), vehicle: Klucel (hydroxypropylcellulose) (HPC)) is 264 % of control; the T/C (endpoint: mean survival time, dose: 150.0 mg/kg/injection, schedule: Q01DX009 (ip), vehicle: Klucel (hydroxypropylcellulose) (HPC)) was 264 % of control; the T/C under setting [1] was 227 % of control; the T/C (endpoint: mean survival time, dose: 400.0 mg/kg/injection, schedule: Q04DX003 (ip), vehicle: Klucel (hydroxypropylcellulose) (HPC)) is 268 % of control.
`N=Cc1c(O)n(C2CCCCC2)c(=O)n(C2CCCCC2)c1=O`: the T/C is, setting by setting: under setting [2], 105 % of control; (endpoint: mean survival time, dose: 100.0 mg/kg/injection, schedule: Q04DX003 (ip), vehicle: saline with Tween-80) 95 % of control; under setting [3], 100 % of control; (endpoint: mean survival time, dose: 200.0 mg/kg/injection, schedule: Q04DX003 (ip), vehicle: saline with Tween-80) 96 % of control; (endpoint: mean survival time, dose: 400.0 mg/kg/injection, schedule: Q01DX009 (ip), vehicle: saline with Tween-80) 107 % of control; (endpoint: mean survival time, dose: 400.0 mg/kg/injection, schedule: Q04DX003 (ip), vehicle: saline with Tween-80) 96 % of control.
`CCC1(O)C(=O)OCc2c1cc1n(c2=O)Cc2cc3cc(Cl)ccc3nc2-1` (stereo not given): the T/C runs as follows: (endpoint: median survival time, dose: 5.0 mg/kg/injection, schedule: Q04DX002 (ip), vehicle: saline with Tween-80) 196 % of control; (endpoint: median survival time, dose: 10.0 mg/kg/injection, schedule: Q04DX002 (ip), vehicle: saline with Tween-80) 264 % of control and 280 % of control; (endpoint: median survival time, dose: 40.0 mg/kg/injection, schedule: Q04DX002 (ip), vehicle: saline with Tween-80) 89 % of control.
Turning to `CCCOC(=O)NCCBr`, the T/C is 101 % of control (endpoint: mean survival time, dose: 50.0 mg/kg/injection, schedule: Q01DX009 (ip), vehicle: saline with Tween-80); 96 % of control under setting [2]; 93 % of control under setting [3].
As for `CN(C)c1ccc(/C=C/c2cc[n+](C)cc2)cc1`, the T/C is 97 % of control (endpoint: mean survival time, dose: 4.0 mg/kg/injection, schedule: Q01DX009 (ip), vehicle: saline) and 94 % of control (endpoint: mean survival time, dose: 8.0 mg/kg/injection, schedule: Q01DX009 (ip), vehicle: saline).
On to `COc1ccc(-c2csc(=[N+]3CCCCC3)s2)cc1`, for which the T/C by setting is: (endpoint: mean survival time, dose: 1.56 mg/kg/injection, schedule: Q01DX009 (ip), vehicle: water) 94 % of control and 102 % of control; (endpoint: mean survival time, dose: 3.12 mg/kg/injection, schedule: Q01DX009 (ip), vehicle: water) 96 % of control and 102 % of control; (endpoint: mean survival time, dose: 6.25 mg/kg/injection, schedule: Q01DX009 (ip), vehicle: water) 96 % of control and 98 % of control; (endpoint: mean survival time, dose: 12.5 mg/kg/injection, schedule: Q01DX009 (ip), vehicle: water) 98 % of control and 106 % of control; (endpoint: mean survival time, dose: 25.0 mg/kg/injection, schedule: Q01DX009 (ip), vehicle: water) 113 % of control and 109 % of control.
In the case of `CC1(C)N=C(N)N=C(N)N1c1cccc(CCCCc2ccc(S(=O)(=O)F)cc2Cl)c1`, the T/C runs as follows: (endpoint: mean survival time, dose: 12.5 mg/kg/injection, schedule: Q01DX009 (ip), vehicle: saline sonified) 87 % of control; (endpoint: mean survival time, dose: 12.5 mg/kg/injection, schedule: Q04DX003 (ip), vehicle: saline sonified) 96 % of control; (endpoint: mean survival time, dose: 25.0 mg/kg/injection, schedule: Q01DX009 (ip), vehicle: saline sonified) 89 % of control; (endpoint: mean survival time, dose: 25.0 mg/kg/injection, schedule: Q04DX003 (ip), vehicle: saline sonified) 96 % of control; (endpoint: mean survival time, dose: 50.0 mg/kg/injection, schedule: Q04DX003 (ip), vehicle: saline sonified) 92 % of control.
With `CC1SC(C(C)(C)C)SC(C)C1C(C)(C)C` (stereo not given), the T/C runs as follows: (endpoint: mean survival time, dose: 12.5 mg/kg/injection, schedule: Q04DX002 (ip), vehicle: saline with Tween-80) 102 % of control; (endpoint: mean survival time, dose: 25.0 mg/kg/injection, schedule: Q04DX002 (ip), vehicle: saline with Tween-80) 102 % of control; (endpoint: mean survival time, dose: 50.0 mg/kg/injection, schedule: Q04DX002 (ip), vehicle: saline with Tween-80) 102 % of control.
For the compound `C/C(=C/c1ccccc1)C(O)C(=O)O` (stereo not given), the T/C is 100 % of control (endpoint: mean survival time, dose: 50.0 mg/kg/injection, schedule: Q04DX003 (ip), vehicle: Klucel (hydroxypropylcellulose) (HPC)) and 100 % of control under setting [1].
